According to the NIST ThermoML archive (doi:10.1016/j.fluid.2015.10.016):
Numbers after ± are expanded uncertainties.

How the values were obtained:
[1] = Crystal; DTA
[2] = Molar enthalpy of transition or fusion; conditions: Crystal; DSC

Row | Compound | Normal melting temperature [1] [°C] | Molar enthalpy of transition or fusion [2] [kcal/mol]
1 | CCCC[N+]1(C)CCCC1.N#CC(=C=[N-])C#N [1-butyl-1-methylpyrrolidinium tricyanomethanide] | -8.8 ± 0.4 | 2.25 ± 0.0789
2 | CCCC[N+]1(C)CCCC1.N#C[B-](C#N)(C#N)C#N [1-butyl-1-methylpyrrolidinium tetracyanoborate] | 19.7 ± 0.4 | 4.97 ± 0.117
3 | CCCC[N+]1(C)CCCC1.O=S(=O)([O-])C(F)(F)F [1-butyl-1-methylpyrrolidinium trifluoromethanesulfonate] | -0.2 ± 0.4 | 2.88 ± 0.0908
4 | OCCc1ccccc1 [2-phenylethanol] | -27 ± 1 | 2.31 ± 0.0956
